Laboratory results from patent US6699690B2, “Molecular constructs with a carcinoembryonic antigen (CEA) transcriptional regulatory sequence” (SmithKline Beecham Corporation, priority 1992, dated 2004).
Where two headings read alike, the source gives them in different places.

What was measured:
[1] = system: WiDr tumors; assay: 5-FC treatment of subcutaneous WiDr tumors in nude mice; format: in vivo; conditions: 5-FC ip 500 mg/kg
Experimental: (§1) The same mixtures of WiDr and WiDr/CD cells were injected subcutaneously into 10 individual nude mice for 10 individual injections of 10 million cells for each mixture (Table 3). By day 6, all mice had tumors of approximately the same size. On day 6, 5 mice of each group received a daily injection of 5-FC (ip at 500 mg/kg body weight) for approximately 20 consecutive days, then injections of 5-FC (ip at 500 mg/kg body weight) three times a week for 19 days. By 22 days post tumor cell injection, all nontreated animals had to be killed due to the large size of the tumors. Likewise, all animals with WiDr derived tumors which also received 5-FC treatment had to be sacrificed on day 22 due to the size of the tumors.

[2] = system: WiDr/CD tumors; assay: 5-FC treatment of subcutaneous WiDr/CD tumors in nude mice; format: in vivo; conditions: WiDr/CD cells injected; 5-FC ip 500 mg/kg; assessed day 130
Experimental: as §1

[3] = system: WiDr/CD cells; assay: Inhibition of cell growth by 5-FC in WiDr/CD cells; format: cell-based; conditions: Homo sapiens; WiDr/CD cells expressing cytosine deaminase, 3,000 cells per well, dosed from Day 3, read Day 8
Experimental: (§2) FIG. 23: 5-FC dose response of mixed WiDr and WiDr/CD cells. […] Beginning on Day 3, the cells were dosed with serially diluted 5-FC at the concentrations indicated on the x axis. The plates were stained and read on Day 8.
(§3) The following data illustrates and supports this important component of this invention. A human colorectal carcinoma cell line, WiDr, was genetically engineered to express cytosine deaminase (CD) by transfecting into the cell line the cloned gene for cytosine deaminase in an appropriate expression vector system for mammalian cells. WiDr cells expressing cytosine deaminase (WiDR/CD) and control cells not expressing cytosine deaminase (WiDr) were mixed together at different ratios, then plated at a total of 3,000 cells per well in a 96 well microtiter dish. […] Using the same mixtures of WiDr and WiDr/CD cells and again plating 3,000 total cells per well in a 96 well microtiter dish, log dose response curves were generated for the inhibition of cell growth by 5-FC.

[4] = system: WiDr cells; assay: Inhibition of cell growth by 5-FC in WiDr cells; format: cell-based; conditions: Homo sapiens; control WiDr cells, 3,000 cells per well, dosed from Day 3, read Day 8
Experimental: as §2, §3

[5] = system: mixed WiDr and WiDr/CD tumors; assay: 5-FC treatment of subcutaneous mixed WiDr:WiDr/CD tumors in nude mice; format: in vivo; conditions: 5-FC ip 500 mg/kg; for Number of Cures: assessed day 130
Experimental: as §1

[6] = system: WiDR, MCF7, Detroit 555, and SW480 nonhepatoma cell lines; assay: Growth inhibition by araM in infected nonhepatoma cell lines; format: cell-based, human; conditions: four nonhepatoma cell lines infected with pCR74 or pCR78 virus
Experimental: Four human, nonhepatoma cell lines were infected with replication-defective, full-length, artifical retroviruses containing the ALB/VZV TK chimaera (pCR74) or AFP/VZV TK chimaera (pCR78). These cell lines were WiDR (ATCC CCL218), MCF7 (ATCC HTB22), Detroit 555 (ATCC CCL110), and SW480 (ATCC CCL228). Subsequent to infection and selection on Geneticin (antibiotic G418 sulphate; registered trademark of GIBCO), these cells were assayed for VZV TK activity and growth inhibition in the presence of 9-β-D-arabinofuranosyl-6-methoxy-9H-purine, as described above. There was no increase in VZV TK activity or drug sensitivity to 9-β-D-arabino-furanosyl-6-methoxy-9H-purine in these four nonhepatoma cell lines infected with replication-defective, full-length, artificial retroviruses containing the ALB/VZV TK chimaera (pCR74) or AFP/VZV TK chimaera (pCR78) compared to parental cell lines which were not infected.

[7] = system: HepG2 cells; assay: ara-ATP formation from (3H)-labelled araM in infected HepG2 cells; format: cell-based, human; conditions: HepG2 cells infected with either pCR74- or pCR78-containing viruses
Experimental: (§4) The replication-defective, full-length, artificial retroviruses containing the ALB/VZV TK chimaera or AFP/VZV TK chimaera were used to infect human hepatoma cell lines called HepG2 (ATCC HB 8065) and HuH7(provided by B. Mason, Fox Chase Cancer Center, Philadelphia, Pa.). Following infection and selection on 1 mg Geneticin/mL, the cells were assayed for VZV TK activity (Geneticin(antibiotic G418 sulphate) is a registered trademark of GIBCO). In addition, HepG2 cells were incubated in the presence of (^3H)-labeled 9-β-D-arabinofuranosyl-6-methoxy-9H-purine (designated as araM in the following tables and figures) with subsequent measurement of ara-ATP formation. Finally, HepG2 and HuH7 cells were cultured in the presence of the abovementioned compound and the IC50 (50% growth inhibition) was determined. Cells infected with no virus or N2 virus act as control samples for these experiments. The N2 viruses contain no VZV TK genetic material.
9-β-D-arabinofuranosyl-6-methoxy-9H-purine (designated as araM) can be selectively monophosphorylated by VZV TK with subsequent anabolism to cytotoxic ara-ATP.

[8] = system: HepG2 cells; assay: Growth inhibition by araM in HepG2 cells; format: cell-based, human; conditions: HepG2 infected with ALB/VZV TK (pCR74) virus, 5 days, read-out: IC50 (50% growth inhibition)
Experimental: as §4
(§5) HepG2 and HuH7 cells infected with the replication-defective, full-length, artificial retroviruses containing the ALB/VZV TK chimaera (pCR74) or AFP/VZV TK (pCR78) chimaera were incubated in the presence of varying amounts of 9-β-D-arabinofuranosyl-6-methoxy-9H-purine for 5 days and growth inhibition was determined as measured by cell number and DNA content.

[9] = system: HuH7 cells; assay: Growth inhibition by araM in HuH7 cells; format: cell-based; conditions: Homo sapiens, Huh-7, 120 h, 5 days, read-out: IC50 (50% growth inhibition)
Experimental: as §4, §5

Structure (SMILES): Nc1nc(=O)[nH]cc1F [5-FC, 5-fluorocytosine]
- Number of Cures ([1]; WiDR cells injected, assessed day 22): 0/5
- effect on tumors ([1]; WiDr tumors that do not express cytosine deaminase): no effect
- Number of Cures [2]: 3/5
- IC50 [3]: 10 to 25 µM
- IC50 [4]: 10000 to 30000 µM
- Number of Cures ([5]; WiDr:WiDr/CD (1:1) injected): 4/5
- Number of Cures ([5]; WiDr:WiDr/CD (1:2) injected): 4/5
- Number of Cures ([5]; WiDr:WiDr/CD (2:1) injected): 4/5
- antitumor effects ([5]; all tumor groups composed of mixtures of cells which contained WiDr/CD cells): significant antitumor effects

Structure (SMILES): COc1ncnc2c1ncn2[C@@H]1O[C@H](CO)[C@@H](O)[C@@H]1O [araM, 9-β-D-arabinofuranosyl-6-methoxy-9H-purine]
- increase in drug sensitivity compared to parental cell lines not infected [6]: no increase
- cytotoxic (3H)-ara-ATP formation [7]: significant amounts
- IC50 ([8]; listed as 9-B-D-arabinofuranosyl-6-methoxy-9H-purine): 5 µM
- IC50 ([8]; Homo sapiens, HepG2, 120 h): 6.5 µM
- IC50 ([9]; HuH7, no virus (control)): ~1620 µM
- IC50 ([9]; HuH7 infected with AFP/VZV TK (pCR78) virus): 76 µM
- IC50 ([9]; HuH7 infected with ALB/VZV TK (pCR74) virus): 11 µM
